Converted amounts (≈) assume the structure as drawn. Where a SMILES comes first, the peptide text is derived from it. [ ]: non-standard residue; d: D form. NCyclohexylmethylGly = O=C(O)CNCC1CCCCC1; N(tridecyl)Gly = CCCCCCCCCCCCCNCC(=O)O; Gly(N-2-aminoethyl) = NCCNCC(=O)O; Gly(N-cHex) = O=C(O)CNC1CCCCC1; Gly(N-cPent) = O=C(O)CNC1CCCC1; N(iPr)Gly = CC(C)NCC(=O)O; NPhGly = O=C(O)CNc1ccccc1; NHexGly = CCCCCCNCC(=O)O; Nlys = NCCCCNCC(=O)O
How the values were obtained:
C. neoformans [1] = assay type: cell-based, Cryptococcus neoformans; details: 72 h
Procedure: The minimum inhibitory concentration (MIC) of peptoids against fungal pathogens C. albicans and C. neoformans was determined following CLSI guidelines (CLSI. Reference method for broth dilution antifungal susceptibility testing of yeasts; approved standard-third edition; CLSI document M27-A3. (Clinical and Laboratory Standards Institute, 2008). […] This inoculant was diluted 1:100 into RPMI-MOPS and then further diluted 1:20 into RPMI-MOPS. 198 μL of inoculant was seeded into each well of a 96 well black-walled plate. 2-fold serial dilutions of 100× peptoid solutions were prepared in water and 2 μL of peptoid were added to each well in triplicate. […] MIC was defined as the lowest concentration of compound preventing fungal growth. This assay was repeated 3 times on separate days with each compound. […] The addition of 0.1 mL cell solution to 9.9 mL of RPMI-MOPS produced a 1:100 cell solution. After vortexing, 0.5 mL of the […] was added to 9.5 mL RPMI-MOPS to produce a 1:20 cell solution. 198 μL of the 1:20 solution was added to the wells of an opaque 96-well plate, apart from the wells designated for the medial control. […] Amphotericin B was used as a positive control, and sterile water was used for the vehicle control. The plates were incubated for 72 hours at 35° C. After incubation, the concentration of compound resulting in no visual growth was recorded as the MIC. All assays performed in biological triplicate on different days.

[2] = tested on: HepG2 hepatocellular carcinoma cells; assay: Mammalian cytotoxicity, MTT, HepG2; assay type: cell-based, human
Procedure: (§1) Hepatocellular carcinoma (HepG2), mouse fibroblast (3T3), human lung (HPL1A), and human keratinocyte (HaCat) cells were cultured in Dulbecco modified eagle media (DMEM) containing 10% fetal bovine serum (FBS) and 1% penicillin, streptomycin, and glutamine (PSG) at 37° C. and 5% CO2. Cells were collected and adjusted to […] to 4×10^5 cells/mL in phenol-red free DMEM and plated (100 μL) 96 well plates. 2-fold serial dilutions of 10× peptoid (11.1 μL) were added to each well in triplicate. Water (vehicle) was used as a negative control. Plates were incubated at 37° C. in 5% CO2 for 72 hours. Thiazolyl blue tetrazolium bromide (MTT) was added to each well (5 mg/mL; 20 μL) and incubated for 3 hours. Media was removed, DMSO (100 μL) was added, and plates were incubated at 37° C. for 10 minutes. Plates were read on a SpectraMax M5 plate reader (Abs. 570 nm). The concentration of compound resulting in a 50% reduction in growth compared to control (toxicity dose 50%; TD50) was determined using GraFit. This procedure was repeated three times on separate days.
(§2) Cytotoxicity against HepG2 hepatocellular carcinoma cells was done as previously described (Green et al. ACS infectious diseases, (2022); Corson et al. ACS medicinal chemistry letters 7 12, 1139-1144 (2016)). HepG2 cells were maintained in culture in T-75 flasks using Dulbecco's Modified Eagle's Media (DMEM) with phenol red pH indicator and supplemented with 10% fetal bovine serum (FBS) and 1% penicillin, streptomycin, and glutamine (PSG). The cells were incubated at 37° C. and 5% CO2 in a humidified incubator until desired confluency was achieved. The media was removed from the flask, and the cells were washed 1× with 10 mL of phosphate-buffered saline (PBS; 11.8 mM phosphate, 140.4 mM NaCl; pH 7.4) which was then discarded. To remove the adhered cells from the flask, 2 mL of trypsin was added, and the cells were incubated for 10 minutes. To quench the trypsin, 8 mL of phenol red-free DMEM with 10% FBS and 1% PGS was added, and the cell solution was transferred to a 15 mL conical tube. After the cells were pelleted by centrifugation at 1000 rpm for 5 minutes, the supernatant was poured off and cells resuspended in the volume of phenol red-free media needed for the assay. Cell concentration was determined by counting with a hemocytometer, and the solution was diluted with media until a concentration of 1×10^5 cells/mL was achieved. A 100 μL aliquot of cell solution was added to each well of a 96-well plate, apart from the 3 wells used for a media control. Cells were incubated for 2-3 hours at 37° C. and 5% CO2 until cells were adherent.
(§3) Compound stocks of 20 mg/mL were used to prepare 2-fold serial dilutions of each compound in sterile water, giving final concentrations of 200, 100, 50, 25, 12.5, 6.25, 3.13 and 1.56 μg/mL. 11.1 μL of prepared compound solutions was added to the appropriate wells in triplicate. A negative vehicle control of sterile water, as well as the aforementioned media control, were used. The plates were incubated for 72 hours at 37° C. and 5% CO2. After incubation, 20 μL of 5 mg/mL 3-(4,5-dimethylthiazol-2-yl)-2,5-diphenyltetrazolium bromide (MTT) in water was added to each well. The plate was incubated for 3 hours at 37° C. and 5% CO2. Media was removed from each well using a sterile glass Pasteur pipette. 100 μL of DMSO was added to each well and incubated for 15 minutes at 37° C. Absorbance was read at 570 nm using a SpectraMax M5 Plate Reader. This MTT assay was performed in biological duplicate unless discrepant results were observed. If this was the case, the assay was performed in biological triplicate for further verification. The reported value is the average of biological replicates with standard deviation.

[3] = Mammalian cytotoxicity, MTT, HepG2; assay type: cell-based, human; details: human, HepG2 hepatocellular carcinoma cells
Procedure: as §1, §2, §3

[4] = Percent acetonitrile at elution during RP-HPLC purification (hydrophobicity); assay type: physicochemical; details: percent acetonitrile at the time of elution from HPLC
From the text: All RMG8-8 derivatives were synthesized via the solid-phase submonomer synthesis method on polystyrene Rink Amide resin (Zuckermann et al. Journal of the American Chemical Society 114, 10646-10647 (1992)). The amines used during synthesis and the peptoid shorthand notations for each monomer are provided in Table 7 and Table 8, respectively. Compounds were purified to greater than 95% by RP-HPLC and compound identity was confirmed by ESI-TOF MS (Table 9). The calculated distribution coefficient at pH 7.4 (c Log D7.4) (via Chemaxon. MarvinSketch 19.17.0, 2019) and the percent acetonitrile at the time of elution during HPLC purification were recorded and serve as measures of hydrophobicity (Table 10). Higher values for c Log D7.4 and percent acetonitrile are indicators of increased compound hydrophobicity. With antimicrobial peptoids, hydrophobicity is directly related to both antimicrobial activity and cytotoxicity (Andreev et al. Biochimica et biophysica acta. Biomembranes 1860 6, 1414-1423 (2018); Bolt et al. Med chem comm 8, 886-896 (2017); Frederiksen et al. Molecules 24, (2019)). The ideal balance of these parameters generally must be determined experimentally. To measure antifungal activity, the minimum inhibitory concentration (MIC), defined as the concentration of compound required to inhibit 90% of fungal growth, was determined against C. neoformans using the broth microdilution method. Mammalian cytotoxicity was evaluated through a cell metabolic activity assay with HepG2 liver carcinoma cells, and select, potentially promising compounds were tested for unwanted hemolytic activity against human red blood cells.
Peptoids were purified via Reversed-Phase High-Performance Liquid Chromatography (RP-HPLC) using a Varian Prepstar SD-1. A gradient of 0-100% water to acetonitrile containing 0.05% TFA made up the mobile phase, and a Supelco Ascentis C18 column (5 μm; 25 cm×21.2 mm; Sigma-Aldrich 581347-U) was used as the stationary phase. Peaks in the chromatogram above 0.1 AU were collected and analyzed via mass spectrometry. The peak product with the desired peptoid was dried down in vacuo and lyophilized overnight. Peptoids were then reconstituted in sterile […] deionized water to create compound stocks of 20 mg/mL.

C. neoformans [5] = assay: microbe, parasite or virus in culture; assay type: cell-based, Cryptococcus neoformans; details: for MIC: Cryptococcus neoformans, checkerboard, 72 hours at 35° C., read-out: MIC (compound alone); for interpretation of combination with RMG8-8: FICi<0.5 synergistic, 0.5≤FICi≤4 indifferent, FICi>4 antagonist; for Combination MIC RMG8-8:Drug, RMG8-8 part: RMG8-8 concentration in combination with the named drug; for Combination MIC RMG8-8:Drug, Drug part: drug concentration in combination with RMG8-8; for FICi: named drug in combination with RMG8-8
Procedure: Cell solution was diluted into RPMI-MOPS (1:100) followed by another dilution into RPMI-MOPS (1:20). […] Plates were incubated for 72 hours at 35° C. MIC was determined as the lowest concentration of individual compound or combined compounds inhibiting pathogen growth. Fractional inhibitory concentration index (FICi) was determine using the following equation: FICi values were interpreted as follows: FICi<0.5 synergistic; 0.5≤FICi≤4 indifferent; FICi>4 antagonist (Johnson et al., Antimicrob. Agents Chemother. 48, 693-715 (2004)).

Structure (SMILES) | C. neoformans MIC (C. neoformans [1]) [µg/mL] | % ACN [4] [%] | MIC (C. neoformans [5]) [µg/mL] | Combination MIC RMG8-8:Drug, RMG8-8 part (C. neoformans [5]) [µg/mL] | Combination MIC RMG8-8:Drug, Drug part (C. neoformans [5]) [µg/mL] | HepG2 TD50 [2] | CC50 at 72 h [3] [µg/mL] | interpretation of combination with RMG8-8 (C. neoformans [5]) | FICi (C. neoformans [5])
CCCCCCCCCCCCCNCC(=O)N(CC(=O)N(CCCC[N+](C)(C)C)CC(=O)N(CC[N+](C)(C)C)CC(=O)N(CC(N)=O)C1CCCCC1)C1CCCCC1 [Compound 1] | 12.5 |  |  |  |  | > 200 µg/mL | > 200 |  | 
CCCCCCCCCCCCCNCC(=O)N(CCCCN)CC(=O)N(CC(=O)N(CC(=O)N(CCN)CC(N)=O)C1CCCCC1)C1CCCCC1 [Compound 3] (H-[N(tridecyl)Gly][Nlys][Gly(N-cHex)][Gly(N-cHex)][Gly(N-2-aminoethyl)]-NH2) | 3.13 | 69.3 |  |  |  |  | 105 ± 3.8 (≈ 138 µM) |  | 
CCCCCCCCCCCCCNCC(=O)N(CCCCCC)CC(=O)N(CCCCN)CC(=O)N(CCN)CC(=O)N(CCCCCC)CC(N)=O [Compound 10] (H-[N(tridecyl)Gly][NHexGly][Nlys][Gly(N-2-aminoethyl)][NHexGly]-NH2) | 1.56 to 3.13 | 73.3 |  |  |  |  | 61 ± 9 (≈ 79.5 µM) |  | 
CCCCCCCCCCCCCNCC(=O)N(CC(=O)N(CCCCN)CC(=O)N(CCN)CC(=O)N(CC(N)=O)CC1CCCCC1)CC1CCCCC1 [Compound 12] (H-[N(tridecyl)Gly][NCyclohexylmethylGly][Nlys][Gly(N-2-aminoethyl)][NCyclohexylmethylGly]-NH2) | 1.56 to 3.13 | 71.4 |  |  |  |  | 62 ± 3 (≈ 78.4 µM) |  | 
CCCCCCCCCCCCCNCC(=O)N(CC(=O)N(CCCCN)CC(=O)N(CCN)CC(=O)N(CC(N)=O)CC1CCCO1)CC1CCCO1 (stereo not shown) [Compound 13] | 12.5 to 25 | 67.3 |  |  |  | greater than 200 μg/mL | > 200 |  | 

Continued, in another order:

C. neoformans MIC (C. neoformans [1]) [µg/mL] | % ACN [4] [%] | MIC (C. neoformans [5]) [µg/mL] | Combination MIC RMG8-8:Drug, RMG8-8 part (C. neoformans [5]) [µg/mL] | Combination MIC RMG8-8:Drug, Drug part (C. neoformans [5]) [µg/mL] | Structure (SMILES) | HepG2 TD50 [2] | CC50 at 72 h [3] [µg/mL] | interpretation of combination with RMG8-8 (C. neoformans [5]) | FICi (C. neoformans [5])
25 | 66.7 |  |  |  | CCCCCCCCCCCCCNCC(=O)N(CC(=O)N(CCCCN)CC(=O)N(CCN)CC(=O)N(CC(N)=O)C(C)C)C(C)C [Compound 8] (H-[N(tridecyl)Gly][N(iPr)Gly][Nlys][Gly(N-2-aminoethyl)][N(iPr)Gly]-NH2) | greater than 200 μg/mL | > 200 |  | 
6.25 | 68.1 |  |  |  | CCCCCCCCCCCCCNCC(=O)N(CC(=O)N(CCCCN)CC(=O)N(CCN)CC(=O)N(CC(N)=O)C1CCCC1)C1CCCC1 [Compound 11] (H-[N(tridecyl)Gly][Gly(N-cPent)][Nlys][Gly(N-2-aminoethyl)][Gly(N-cPent)]-NH2) | greater than 200 μg/mL | > 200 |  | 
1.56 to 3.13 | 67.7 |  |  |  | CCCCCCCCCCCCCNCC(=O)N(CC(=O)N(CCCCN)CC(=O)N(CCN)CC(=O)N(CC(N)=O)c1ccccc1)c1ccccc1 [Compound 14] (H-[N(tridecyl)Gly][NPhGly][Nlys][Gly(N-2-aminoethyl)][NPhGly]-NH2) |  | 81 ± 25 (≈ 108 µM) |  | 
 |  | 2 | 1.56 | 2 | OC(Cn1cncn1)(Cn1cncn1)c1ccc(F)cc1F [Fluconazole] |  |  | indifferent | 2
 |  | 2 | 1.56 | 2 | Nc1[nH]c(=O)ncc1F [Flucytosine] |  |  | indifferent | 2

— US20240352066A1, “ANTIMICROBIAL COMPOUNDS AND THE METHOD OF USE” (priority 2021, published 2024)
